According to patent publication US7897596B2, “Allosteric modulators of the A1 adenosine receptor” (King Pharmaceuticals Research & Development, Inc., priority 2006, dated 2011):

Molecular target: T1, human A1 adenosine receptors (Homo sapiens, UniProt P30542)
T1 construct: expressed in transfected cells; host or cells: CHO cells (hCHO-A1 clone)
T1 sequence (P30542 1-326): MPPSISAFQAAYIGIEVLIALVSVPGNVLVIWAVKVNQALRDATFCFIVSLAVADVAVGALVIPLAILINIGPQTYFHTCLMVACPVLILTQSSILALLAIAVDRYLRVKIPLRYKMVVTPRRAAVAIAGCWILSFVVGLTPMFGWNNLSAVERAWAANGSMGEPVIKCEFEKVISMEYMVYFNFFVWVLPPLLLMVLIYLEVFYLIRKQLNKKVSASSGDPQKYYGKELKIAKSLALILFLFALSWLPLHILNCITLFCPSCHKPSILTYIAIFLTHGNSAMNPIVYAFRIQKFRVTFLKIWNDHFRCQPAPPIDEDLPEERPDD
Experiment: Saturation binding of [3H]CCPA to hCHO-A1
Procedure: The hCHO-A1, hCHO-A2A and hCHO-A3 cell clones are grown adherently and maintained in Dulbecco's modified Eagle's medium with nutrient mixture F12, containing 10% fetal calf serum, penicillin (100 U/mL), streptomycin (100 μg/mL), L-glutamine (2 mM), geneticine (G418, 0.2 mg/mL) at 37° C. in 5% CO2/95% air (Klotz et al. Naunyn-Schmied. Arch Pharm. 1998, 357, 1-9). Cells are split two or three times weekly at a ratio of between 1:5 and 1:10. For membrane preparation the culture medium is removed. The cells are washed with PBS and scraped off T75 flasks in ice-cold hypotonic buffer (5 mM Tris HCl, 2 mM EDTA, pH 7.4). The cell suspension is homogenized with Polytron and the homogenate is spun for 10 min at 1,000×g. […] The protein concentration is determined according to a Bio-Rad method (Bradford, 1976) with bovine albumin as a standard reference.
To determine the effect of the compounds of the present invention on the binding to A1, A2A and A3 receptors, membranes from hCHO-A1, hCHO-A2A, hCHO-A3 are incubated in a buffer solution in the absence and in the presence of the examined compounds. […] Bound and free radioactivity are separated by filtering the assay mixture through Whatman GF/B glass fibre filters using a Micro-mate 196 cell harvester (Packard Instrument Company). The filter bound radioactivity was counted on Top Count Microplate Scintillation Counter (efficacy […]) with Micro 20. […]

Nc1scc(CN2CCC3(CC2)Oc2cccc(F)c2O3)c1C(=O)c1ccc(Cl)cc1 [Example 60, {2-Amino-4-(4-fluorospiro[benzo[d][1,3]-dioxole-2,4′-piperidine]-1′-ylmethyl)thiophen-3-yl}(4-chlorophenyl)methanone]
increase in the BMAX value of the agonist [3H]CCPA: about 6 fold
